Legend:
[1] = test system: Mycobacterium tuberculosis multidrug-resistant (MDR) strain; assay: microbe, parasite or virus in culture; format: cell-based; conditions: 192 h, read-out: Anti-tubercular activity against Mycobacterium tuberculosis (MIC), MDR
[2] = test system: Mycobacterium tuberculosis extensively drug-resistant (XDR) strain; assay: microbe, parasite or virus in culture; format: cell-based; conditions: 192 h, read-out: Anti-tubercular activity against Mycobacterium tuberculosis (MIC), XDR

Work on `N#Cc1ccc(C(=O)C[n+]2ccc(C#N)cc2)cc1.[Br-]` [Compound 3f, 4-Cyano-1-(2-(4-cyanophenyl)-2-oxoethyl)pyridin-1-ium bromide] yielded an MIC [1] of 4 µg/mL and an MIC [2] of 32 µg/mL.
